Measurements as given in PubChem BioAssay AID330 (DTP/NCI, 2004).
Where “and” joins values, the source holds several entries; their conditions need not be identical. Equal entries are not always repeated. Toxic doses and inconclusive results are not listed.

Test system: P388 leukemia ip, CD2F1 mice, survival T/C
Assay: NCI In Vivo Anticancer Drug Screen. Data for tumor model P388 Leukemia (intraperitoneal) in CD2F1 (CDF1) mice
Details: endpoint: median survival time, higher = longer survival
Procedure, shortened: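 Mice carrying the transplanted tumor received test compound or vehicle. Survival was recorded in each group, and the value is the treated-group measurement divided by that of the vehicle-treated control group.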

[1] = dose: 100.0 mg/kg/injection, schedule: Q04DX002 (ip), vehicle: saline
[2] = dose: 200.0 mg/kg/injection, schedule: Q04DX002 (ip), vehicle: saline
[3] = dose: 400.0 mg/kg/injection, schedule: Q04DX002 (ip), vehicle: saline
[4] = dose: 25.0 mg/kg/injection, schedule: Q01DX009 (ip), vehicle: saline with Tween-80
[5] = dose: 100.0 mg/kg/injection, schedule: Q01DX009 (ip), vehicle: saline with Tween-80
[6] = dose: 60.0 mg/kg/injection, schedule: Q01DX005 (ip), vehicle: saline with Tween-80
[7] = dose: 120.0 mg/kg/injection, schedule: Q01DX005 (ip), vehicle: saline with Tween-80
[8] = dose: 240.0 mg/kg/injection, schedule: Q01DX005 (ip), vehicle: saline with Tween-80
[9] = dose: 50.0 mg/kg/injection, schedule: Q01DX005 (ip), vehicle: saline with Tween-80
[10] = dose: 100.0 mg/kg/injection, schedule: Q01DX005 (ip), vehicle: saline with Tween-80
[11] = dose: 200.0 mg/kg/injection, schedule: Q01DX005 (ip), vehicle: saline with Tween-80
[12] = dose: 100.0 mg/kg/injection, schedule: Q01DX009 (ip), vehicle: Klucel (hydroxypropylcellulose) (HPC)
[13] = dose: 200.0 mg/kg/injection, schedule: Q01DX009 (ip), vehicle: Klucel (hydroxypropylcellulose) (HPC)
[14] = dose: 400.0 mg/kg/injection, schedule: Q01DX009 (ip), vehicle: Klucel (hydroxypropylcellulose) (HPC)
[15] = dose: 50.0 mg/kg/injection, schedule: Q01DX009 (ip), vehicle: saline with Tween-80
[16] = dose: 200.0 mg/kg/injection, schedule: Q01DX009 (ip), vehicle: saline with Tween-80
[17] = dose: 6.25 mg/kg/injection, schedule: Q01DX005 (ip), vehicle: saline with Tween-80
[18] = dose: 12.5 mg/kg/injection, schedule: Q01DX005 (ip), vehicle: saline with Tween-80

`NC(c1cccc([N+](=O)[O-])c1)S(=O)(=O)O` (stereo not given) was tested, and the T/C [1] was 99 % of control, the T/C [2] was 105 % of control and the T/C [3] was 105 % of control.
For `CCC(SC)C(=O)N(C)c1ccccc1` (stereo not given), the T/C (dose: 6.25 mg/kg/injection, schedule: Q01DX009 (ip), vehicle: saline) was 104 % of control, the T/C (dose: 12.5 mg/kg/injection, schedule: Q01DX009 (ip), vehicle: saline) was 107 % of control and the T/C [4] was 90 % of control. The T/C (dose: 25.0 mg/kg/injection, schedule: Q01DX009 (ip), vehicle: saline) was 114 % of control and the T/C [5] was 109 % of control.
For `COc1cc2c(c(OC)c1OC)-c1ccc(OC)c(=O)cc1[C@@H](N(C)C(=O)C(F)(F)F)CC2`, the T/C (dose: 1.25 mg/kg/injection, schedule: Q01DX009 (ip), vehicle: Klucel (hydroxypropylcellulose) (HPC)) was 154 % of control and 163 % of control.
With `O=C1OC(C(O)C(O)CO)C(O)C1O` (stereo not given) the T/C (dose: 50.0 mg/kg/injection, schedule: Q01DX005 (ip), vehicle: saline) was 108 % of control, the T/C (dose: 100.0 mg/kg/injection, schedule: Q01DX005 (ip), vehicle: saline) was 100 % of control and the T/C (dose: 200.0 mg/kg/injection, schedule: Q01DX005 (ip), vehicle: saline) was 95 % of control.
For `Cc1cc(O)c2c(c1)C(=O)C13C(=C2O)C(=O)C2C(O)C1C1C(O)C3C(=O)C3=C(O)c4c(O)cc(C)cc4C(=O)C321` (stereo not given), the T/C (dose: 3.12 mg/kg/injection, schedule: Q01DX005 (ip), vehicle: Klucel (hydroxypropylcellulose) (HPC)) was 110 % of control and the T/C (dose: 6.25 mg/kg/injection, schedule: Q01DX005 (ip), vehicle: Klucel (hydroxypropylcellulose) (HPC)) was 100 % of control.
`COc1ccc(C2OC(=O)C=C(C)O2)cc1` (stereo not given) was tested, and the T/C (dose: 60.0 mg/kg/injection, schedule: Q01DX005 (ip), vehicle: Klucel (hydroxypropylcellulose) (HPC)) was 104 % of control, the T/C (dose: 120.0 mg/kg/injection, schedule: Q01DX005 (ip), vehicle: Klucel (hydroxypropylcellulose) (HPC)) was 98 % of control and the T/C (dose: 240.0 mg/kg/injection, schedule: Q01DX005 (ip), vehicle: Klucel (hydroxypropylcellulose) (HPC)) was 117 % of control.
`COc1ccc2c(c1)N(S(=O)(=O)c1ccc(C)cc1)CC1=C2CCP1(C)=O` (stereo not given) was tested, and the T/C (dose: 100.0 mg/kg/injection, schedule: Q01DX001 (ip), vehicle: saline) was 111 % of control, the T/C (dose: 200.0 mg/kg/injection, schedule: Q01DX001 (ip), vehicle: saline) was 111 % of control and the T/C (dose: 400.0 mg/kg/injection, schedule: Q01DX001 (ip), vehicle: saline) was 112 % of control.
For `CS(=O)(=O)C(Cl)(Cl)Cl`, the T/C [6] was 105 % of control, the T/C [7] was 107 % of control and the T/C [8] was 112 % of control.
`CCC(C)(O)P(=O)(O)O` (stereo not given) was tested, and the T/C (dose: 50.0 mg/kg/injection, schedule: Q01DX009 (ip), vehicle: saline) was 98 % of control, the T/C (dose: 100.0 mg/kg/injection, schedule: Q01DX009 (ip), vehicle: saline) was 98 % of control and the T/C (dose: 200.0 mg/kg/injection, schedule: Q01DX009 (ip), vehicle: saline) was 95 % of control.
`COC(=O)c1c(C(=O)Nc2ccccc2)c(-c2ccccc2)n(NC(N)=O)c1C` was tested, and the T/C [9] was 112 % of control, the T/C [10] was 107 % of control and the T/C [11] was 104 % of control.
With `COc1cc2ccc(CC(=O)NCCc3ccc4c(c3)OCO4)cc2cc1OC` the T/C [12] was 100 % of control, the T/C [13] was 100 % of control and the T/C [14] was 90 % of control.
With `Cc1onc(-c2c(Cl)cccc2Cl)c1C(=O)Oc1ccc(-c2ccc(OC(=O)c3c(-c4c(Cl)cccc4Cl)noc3C)cc2)cc1` the T/C [6] was 108 % of control, the T/C [7] was 102 % of control and the T/C [8] was 89 % of control.
With `CCOC(=O)c1cnc2cc(Cl)ccc2c1N=[N+]=[N-]` the T/C [6] was 91 % of control, the T/C [7] was 100 % of control and the T/C [8] was 99 % of control.
For `CC(C)c1cc(C(=O)[O-])c(O)c(C(C)C)c1.CC(C)c1cc(C(=O)[O-])c(O)c(C(C)C)c1.CC1OC(O[C@H]2/C=C/C=C/C=C/C=C/C=C/C=C/C=C/C(C)[C@@H](O)C(C)C(C)OC(=O)C[C@H](O)C[C@H](O)CC[C@@H](O)[C@H](O)C[C@H](O)C[C@]3(O)CC(O)[C@@H](C(=O)O)[C@H](C2)O3)C(O)C(N)C1O.[Cu+2]` (stereo not given in full), the T/C (dose: 12.5 mg/kg/injection, schedule: Q04DX002 (ip), vehicle: saline with Tween-80) was 103 % of control, the T/C (dose: 25.0 mg/kg/injection, schedule: Q04DX002 (ip), vehicle: saline with Tween-80) was 97 % of control and the T/C (dose: 50.0 mg/kg/injection, schedule: Q04DX002 (ip), vehicle: saline with Tween-80) was 91 % of control.
`NC(=O)c1cnc(N)nc1` was tested, and the T/C (dose: 6.25 mg/kg/injection, schedule: Q01DX009 (ip), vehicle: saline with Tween-80) was 93 % of control, the T/C (dose: 12.5 mg/kg/injection, schedule: Q01DX009 (ip), vehicle: saline with Tween-80) was 91 % of control and the T/C [4] was 98 % of control. For the same molecule, the T/C [15] was 94 % of control, the T/C [5] was 98 % of control and the T/C [16] was 106 % of control.
In the case of `C=C1C(=O)OC2C[C@]3(C)C(CC12)C(=C)C(O)C[C@@H]3OC(=O)C(C)CC` (stereo not given in full), the T/C [9] is reported as 105 % of control, the T/C [10] is reported as 103 % of control and the T/C [11] is reported as 111 % of control.
In the case of `CC1(C)CC(C)(C)C2(OC3=C([Se]2)C(C)(C)CC(C)(C)C3=O)C(=O)C1=O` (stereo not given), the T/C [15] is reported as 100 % of control, the T/C [5] is reported as 118 % of control and the T/C [16] is reported as 117 % of control.
For `CC(=O)C(CO)C(=O)Nc1ccccc1` (stereo not given), the T/C [15] was 100 % of control, the T/C [5] was 95 % of control and the T/C [16] was 95 % of control.
`NC(=S)C1OC(COC(=O)c2ccccc2)C(OC(=O)c2ccccc2)C1OC(=O)c1ccccc1` (stereo not given) was tested, and the T/C [15] was 96 % of control, the T/C [5] was 94 % of control and the T/C [16] was 102 % of control.
`CCCCCCCCCCN(CCCCCCCCCC)C1CC(OC2CC(O)(C(C)O)Cc3c(O)c4c(c(O)c32)C(=O)c2c(OC)cccc2C4=O)OC(C)C1O` (stereo not given) was tested, and the T/C (dose: 4.7 mg/kg/injection, schedule: Q04DX003 (ip), vehicle: water) was 99 % of control, the T/C (dose: 9.4 mg/kg/injection, schedule: Q04DX003 (ip), vehicle: water) was 99 % of control and the T/C (dose: 18.8 mg/kg/injection, schedule: Q04DX003 (ip), vehicle: water) was 101 % of control. For the same molecule, the T/C (dose: 37.5 mg/kg/injection, schedule: Q04DX003 (ip), vehicle: water) was 110 % of control and the T/C (dose: 75.0 mg/kg/injection, schedule: Q04DX003 (ip), vehicle: water) was 101 % of control.
For `CCOC(=O)COc1ccc(Cc2ccc3c(c2)OCO3)cc1C`, the T/C [9] was 97 % of control, the T/C [10] was 97 % of control and the T/C [11] was 93 % of control.
For `Cc1cc(Nc2ccc(O)cc2)nc(Nc2ccc(O)cc2)n1`, the T/C [6] was 99 % of control, the T/C [7] was 99 % of control and the T/C [8] was 103 % of control.
With `C/C(=N\NC(N)=O)C1=C(O)C(C(C)C)NC1=O` (stereo not given) the T/C [15] was 93 % of control, the T/C [5] was 99 % of control and the T/C [16] was 92 % of control. The T/C (dose: 400.0 mg/kg/injection, schedule: Q01DX009 (ip), vehicle: saline with Tween-80) was 99 % of control.
With `CC(=O)OC(C)C[N+](C)(C)C` (stereo not given) the T/C [1] was 102 % of control, the T/C [2] was 102 % of control and the T/C [3] was 94 % of control.
With `CC(=O)C(C(C)=O)[N+](=O)[O-].CC(=O)C(C(C)=O)[N+](=O)[O-].[Cu]` the T/C [17] was 100 % of control and the T/C [18] was 105 % of control.
For `CCCCCc1onc(-c2noc(CCCCC)c2C)c1C`, the T/C (dose: 60.0 mg/kg/injection, schedule: Q01DX005 (ip), vehicle: saline) was 100 % of control, the T/C (dose: 120.0 mg/kg/injection, schedule: Q01DX005 (ip), vehicle: saline) was 99 % of control and the T/C (dose: 240.0 mg/kg/injection, schedule: Q01DX005 (ip), vehicle: saline) was 104 % of control.
For `COc1ccccc1/C=C/C1=C(C)C(=O)CC(c2ccccc2OC)C1C` (stereo not given), the T/C [12] was 100 % of control, the T/C [13] was 98 % of control and the T/C [14] was 92 % of control.
In the case of `CCOc1cccc(/C=N/NC(=O)C(=O)Nc2cccc(C(F)(F)F)c2)c1O`, the T/C (dose: 12.5 mg/kg/injection, schedule: Q01DX005 (ip), vehicle: Klucel (hydroxypropylcellulose) (HPC)) is reported as 98 % of control, the T/C (dose: 25.0 mg/kg/injection, schedule: Q01DX005 (ip), vehicle: Klucel (hydroxypropylcellulose) (HPC)) is reported as 95 % of control and the T/C (dose: 50.0 mg/kg/injection, schedule: Q01DX005 (ip), vehicle: Klucel (hydroxypropylcellulose) (HPC)) is reported as 89 % of control and 90 % of control.
`O=C1c2cc3c(-c4ccccc4)oc(-c4ccccc4)c3cc2C(=O)c2c(O)ccc(O)c21` was tested, and the T/C [17] was 94 % of control, the T/C [18] was 94 % of control and the T/C (dose: 25.0 mg/kg/injection, schedule: Q01DX005 (ip), vehicle: saline with Tween-80) was 94 % of control. For the same molecule, the T/C [11] was 99 % of control.
With `COC(=O)c1cc(-c2ccc(N)cc2)n2c(N)nnc2n1` the T/C [6] was 107 % of control, the T/C [7] was 91 % of control and the T/C [8] was 98 % of control.
